Measurements: patent US8518965B2, “Compositions and methods for treating cancer” (Trustees of Dartmouth College, priority 2009, dated 2013)

Columns and labels:
[1] = test system: HCT116 human colon cancer xenografts; test: In vivo efficacy, HCT116 xenografts in nude mice; set-up: species or system nude mice (nu/nu genotype); conditions: single i.p. injection
Experimental: This in vivo anticancer efficacy study was performed on nude mice (nu/nu genotype) bearing HCT116 human colon cancer xenografts. These human tumors grew exponentially following implantation into the flanks of the mice and reached a diameter of 3 mm. Treatment was initiated at that time, with the first day of treatment designated as day 0 for all calculations and plots. […] Mice in the control group, bearing 3 mm diameter tumors, were treated with vehicle alone. After treatment, tumor sizes were measured by caliper every day. Daily measurement of the tumor diameters (d1, d2) in two orthogonal directions was used to calculate the tumor volume (tumor volume=π/6{(d1+d2)/2}^3) using the approximation that the tumors were spherical. The values of time (days) required to grow the tumor to the size of 1,000 cu. mm after various treatments and tumor growth delay percentage were calculated for evaluating the treatment effects. Survival times and tumor inhibitory effects on day 20 after treatment were also observed and recorded.

[2] = test system: NCI/ADR-RES human breast cancer cells; test: Colony formation assay, NCI/ADR-RES cells; format: cell-based; conditions: 72 hours with compound, colonies counted after 14 days
Experimental: (§1) NCI/ADR-RES human breast cancer cells (500 cells), HCT116 human colon cancer cells (400 cells) or SF 295 human glioblastoma cells (1000 cells) were plated in 60 mm Petri dishes containing 2.7 ml of medium (modified McCoy's 5a medium containing 10% fetal bovine serum and 100 units/ml penicillin and 100 μg/ml streptomycin). The cells were incubated in a CO2 incubator at 37° C. for 5 hours for attachment to the bottom of Petri dishes. Compounds were prepared fresh in medium at ten times the final concentration, and then 0.3 ml of this stock solution was added to the 2.7 ml of medium in the dish. The cells were then incubated with compounds for 72 hours at 37° C. At the end of incubation, the compound-containing media were decanted, the dishes were rinsed with 4 ml of Hank's Balance Salt Solution (HBSS), 5 ml of fresh medium was added, and the dishes were returned to the incubator for colony formation. The cell colonies were counted using a colony counter after incubation for 14 days for NCI/ADR-RES cells and 10 days for HCT116 cells and SF 295 cells. Cell survival was calculated and the IC50 values (the drug concentration producing 50% inhibition of colony formation) were determined for each tested compound.

[3] = test system: SF 295 human glioblastoma xenografts; test: In vivo efficacy, SF 295 xenografts in nude mice; conditions: D11B 382 mg/kg single i.p. injection
Experimental: In vivo anticancer efficacy studies were performed on nude mice (nu/nu genotype) bearing SF 295 human glioblastoma xenografts. […]. Treatment was initiated at that time, with the first day of treatment designated as day 0 for all calculations and plots. […] Compound doses were 382 mg/kg for D11B, 212 mg/kg for D15B, 5 mg/kg for D25B, and 10.6 mg/kg for D35B. Mice in the control group bearing 3 mm diameter tumors was treated with vehicle alone. After treatment, tumor sizes were measured by caliper every day. Daily measurements of the tumor diameters (d1, d2) in two orthogonal directions was used to calculate the tumor volume (tumor volume=π/6{(d1+d2)/2}^3) using the approximation that the tumors were spherical. The values of time (days) required to grow the tumor to twice their initial size after various treatments was calculated as tumor doubling time (TDT) for evaluating the treatment effects. Survival times and curative effects after treatment were also observed and recorded.

[4] = State of stock and injection solutions in water + co-solvents; format: physicochemical
Experimental: The solubility of D11B in various combinations of solvents was also analyzed. […] For the analysis of co-solvents, stock solutions were prepared by dissolving D11B in a corresponding solvent. Stock solutions of D11B in dimethylsulfoxide (DMSO) were prepared at 25° C., and stock solutions of D11B in PEG-400, CREMOPHOR® EL and Polysorbate 80 were prepared at 100° C. Injection solutions, in water (0.3 mg/ml), were prepared by dropwise addition of the stock solution to a required volume of vigorously stirred hot water (80° C.).
Additional solubility determinations were carried out with D11B×2AH in water+co-solvents. For this analysis, stock solutions were prepared by dissolving D11B×2AH in a corresponding solvent. Stock solutions of D11B×2AH in DMSO were prepared at 25° C. and stock solutions of D11B×2AH in PEG-400 were prepared at 100° C.
Injection solutions in water (0.3 mg/ml) were prepared by dropwise addition of each stock solution to a required volume of vigorously stirred water.

in vivo = conditions: C3H/HeN, mouse, ip
Experimental: The MTD40 (maximum tolerated dose at day 40) values were determined on normal C3H/HeN mice using standard procedures. […] The result of this exercise was two dosages, one apparently nonlethal and the other lethal, if severe and irreversible toxicity occurred and euthanasia was required. Six mice were dosed at each dosage. If no severe and irreversible toxicity occurred at the lower dosage and at least one with severe and irreversible toxicity at the higher dose, then the lower dose was considered to be the MTD.
Compounds were administered to C3H/HeN mice by intraperitoneal injection (5% alcohol, 5% CREMOPHOR® EL, and 90% saline, 0.5 ml/20 gram, single injection). Drug toxicity was evaluated on mice checked daily for 40 days. The toxicity parameters reported were the MTD40. […] At the end of experiment, all mice were euthanized.
The toxicity parameters reported were the MTD40. At the end of experiment, all mice will be euthanized.

[5] = test system: HCT116 human colon cancer cells; test: Colony formation assay, HCT116 cells; format: cell-based
Experimental: as §1
Four hundred HCT116 cells were plated in 60 mm Petri dishes containing 2.7 ml of medium (modified McCoy's 5a medium containing 10% fetal bovine serum and 100 units/ml penicillin and 100 μg/ml streptomycin). The cells were incubated in a CO2 incubator at 37° C. for 5 hours for attachment to the bottom of Petri dishes. Compounds were prepared fresh in medium at ten times the final concentration, and then 0.3 ml of this stock solution was added to the 2.7 ml of medium in the dish. The cells were then incubated with drugs for 72 hours at 37° C. At the end of incubation the compound-containing media were decanted, the dishes were rinsed with 4 ml of Hank's Balance Salt Solution (HBSS), 5 ml of fresh medium was added, and the dishes were returned to the incubator for colony formation. HCT116 cell colonies were counted using a colony counter after […] of incubation. Cell survival was calculated and IC50 values were determined for each compound tested.

Q: Which Mean survival time ([1]; control group 19.7 days) does the source give for `c1ccc2c(Nc3ccc(Oc4ccc(Nc5c6ccccc6nc6ccccc56)cc4)cc3)c3ccccc3nc2c1` [Compound D11B] here?
A: The Mean survival time was 40.5 days.

Q: What about the “Tumor growth delay percentage” value ([1]; time for growth up to the tumor volume of 1,000 cu. mm) of the same compound?
A: Its value is 131%.

Q: And the Inhibition ratio ([1]; tumor growth on day 20 after drug administration)?
A: Its Inhibition ratio is 4.65.

Q: What about the IC50 [2] of the same compound?
A: The IC50 was 1310 nM.

Q: And the Curative effect [3]?
A: Its Curative effect is “one mouse was even cured”.

Q: And the “Ratio of TDTs (D11B treated over control)” value [3]?
A: The value was 9.8.

Q: And the “TDT (tumor doubling time)” value ([3]; control group 2.5 days)?
A: Its value is 24.5 days.

Q: What about the Mean survival time ([3]; control group 40.5 days) of the same compound?
A: Its Mean survival time is at least 58.67 days.

Q: What about the “State of the stock solution” value ([4]; D11B in DMSO, 20 mg/ml) of the same compound?
A: The value was “clear”.

Q: What about the “State of the stock solution” value ([4]; D11B in DMSO, 30 mg/ml) of the same compound?
A: The value was “clear”.

Q: What about the “State of the stock solution” value ([4]; D11B in DMSO, 40.5 mg/ml) of the same compound?
A: The value was “clear”.

Q: And the “State of the stock solution” value ([4]; D11B in DMSO, 50 mg/ml)?
A: Its value is “clear”.

Q: And the “State of the stock solution” value ([4]; D11B in DMSO, 70 mg/ml)?
A: Its value is “clear”.

Q: What about the “State of the stock solution” value ([4]; D11B in DMSO, 100 mg/ml) of the same compound?
A: The value was “clear”.

Q: And the “State of the injection solution” value ([4]; D11B in H2O-CREMOPHOR EL, 0.3 mg/ml, CREMOPHOR EL 1 wt. %)?
A: The value was “clear”.

Q: And the “State of the injection solution” value ([4]; D11B in H2O-PEG-400 0.3 mg/ml, stock 12 mg/ml, PEG-400 2.82 wt. %)?
A: Its value is “clear^b”.

Q: And the “State of the injection solution” value ([4]; D11B in H2O-PEG-400 0.3 mg/ml, stock 20 mg/ml, PEG-400 1.7 wt. %)?
A: The value was “clear^a”.

Q: And the “State of the injection solution” value ([4]; D11B in H2O-Polysorbate 80, 0.3 mg/ml, Polysorbate 80 1 wt. %)?
A: Its value is “clear”.

Q: And the “State of the injection solution” value ([4]; D11B in H2O—DMSO 0.3 mg/ml, stock 20 mg/ml, DMSO 1.65 wt. %)?
A: Its value is “clear”.

Q: And the “State of the injection solution” value ([4]; D11B in H2O—DMSO 0.3 mg/ml, stock 30 mg/ml, DMSO 1.1 wt. %)?
A: The value was “clear”.

Q: And the “State of the injection solution” value ([4]; D11B in H2O—DMSO 0.3 mg/ml, stock 40.5 mg/ml, DMSO 0.83 wt. %)?
A: The value was “clear”.

Q: What about the “State of the injection solution” value ([4]; D11B in H2O—DMSO 0.3 mg/ml, stock 50 mg/ml, DMSO 0.66 wt. %) of the same compound?
A: The value was “clear”.

Q: And the “State of the injection solution” value ([4]; D11B in H2O—DMSO 0.3 mg/ml, stock 70 mg/ml, DMSO 0.47 wt. %)?
A: The value was “clear”.

Q: What about the “State of the injection solution” value ([4]; D11B in H2O—DMSO 0.3 mg/ml, stock 100 mg/ml, DMSO 0.33 wt. %) of the same compound?
A: Its value is “clear”.

Q: What about the “State of the stock solution” value ([4]; D11B in PEG-400, 12 mg/ml) of the same compound?
A: The value was “clear”.

Q: And the “State of the stock solution” value ([4]; D11B in PEG-400, 20 mg/ml)?
A: Its value is “gel”.

Q: What about the “State of the stock solution” value ([4]; D11B in PEG-400, 40 mg/ml) of the same compound?
A: Its value is “gel”.

Q: What about the “State of the stock solution” value ([4]; D11B in Polysorbate 80, 32.25 mg/ml) of the same compound?
A: The value was “clear”.

Q: What about the MTD at 40 days (in vivo) of the same compound?
A: The MTD at 40 days was 450 mg/kg.

Q: What about the IC50 ([5]; Homo sapiens, HCT-116, HCT116 cells, 72 hours with compound, colonies counted after 10 days, read-out: IC50 (nM) Colon Cancer) of the same compound?
A: The IC50 was 167 nM.

Q: What about the “IC50 values lower for colon cells as compared to breast cancer cells” value ([5]; colon vs breast cancer cells) of the same compound?
A: Its value is “approximately 10 fold”.
